Active and inactive are the calls of the source. The calls are words filed in the database; no cut-off is given here.
Legend:
[1] = target: T1, C-X-C chemokine receptor type 4 (Homo sapiens, UniProt P61073); assay: Inhibition of fluorescently labeled 12G5 antibodies binding to CXCR4 in human MDA-MB-231 cells assessed as change in fluorescence intensity incubated for 3 hrs under dark condition by FACS assay; type: cell-based
MDA-MB-231 [2] = assay: Inhibition of CXCR4/CXCL12 interaction in human MDA-MB-231 cells assessed as reduction in cell invasion at 100 nM measured after 24 hrs by H and E staining based matrix gel invasion assay
MDA-MB-231 [3] = assay: Inhibition of cell migration in human MDA-MB-231 cells at 100 nM measured after 24 hrs by wound healing based inverted microscopic analysis; type: functional
MDA-MB-231 [4] = assay: Inhibition of CXCR4/CXCL12-mediated AKT phosphorylation in human MDA-MB-231 cells by Western blot analysis; type: cell-based; settings: dose 0.1-100 nM
[5] = target: T1, C-X-C chemokine receptor type 4; assay: Binding affinity to CXCR4 in human MDA-MB-231 cells assessed as increase in thermal stability at 50 to 55 degreeC at 100 nM incubated for 12 hrs by CETSA; type: cell-based
Mus musculus [6] = assay: Antiinflammatory activity in ip dosed xylene-induced mouse ear swelling model assessed as reduction in ear swelling pretreated with xylene for 30 mins followed by compound addition and measured after 2 hrs; type: functional, organism-based; settings: dose 10-30 mg/kg
Mus musculus [7] = assay: Antiinflammatory activity in xylene-induced mouse ear swelling model assessed as reduction in inflammatory cell infiltration at 10 to 30 mg/kg, ip pretreated with xylene for 30 mins followed by compound addition and measured after 2 hrs by H and E staining based light microscopic analysis; type: functional, organism-based; settings: dose 10-30 mg/kg
[8] = Toxicity in ip dosed mouse assessed as median lethal dose by Bliss method; type: organism-based; settings: in vivo, read-out: LD
MDA-MB-231 [9] = assay: Cytotoxicity against human MDA-MB-231 cells assessed as reduction in cell viability at 10 uM incubated for 24 hrs by MTT assay; type: toxicity, cell-based; settings: mda-mb-231, 24 h

T1 sequence (P61073 whole entry): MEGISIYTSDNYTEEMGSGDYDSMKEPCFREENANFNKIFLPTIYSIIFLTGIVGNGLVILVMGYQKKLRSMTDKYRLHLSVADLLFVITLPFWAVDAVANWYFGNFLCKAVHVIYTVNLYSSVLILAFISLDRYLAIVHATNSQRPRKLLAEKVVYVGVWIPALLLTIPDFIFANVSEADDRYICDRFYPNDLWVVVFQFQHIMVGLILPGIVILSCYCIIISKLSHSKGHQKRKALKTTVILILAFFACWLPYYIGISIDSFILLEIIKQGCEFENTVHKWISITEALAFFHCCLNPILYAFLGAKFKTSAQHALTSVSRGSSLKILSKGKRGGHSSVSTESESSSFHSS

## O=S(=O)(NCC1CCCO1)c1ccc(Oc2ccc(S(=O)(=O)NCC3CCCO3)cc2)cc1 (centres undefined)
[1]
  IC50: 254 nM
MDA-MB-231 [2]
  inhibition: Active
MDA-MB-231 [3]
  inhibition: Active
MDA-MB-231 [4]
  inhibition: Dose-Dependent Effect
[5]
  Activity: Active
Mus musculus [6]
  Activity: Dose-Dependent Effect
Mus musculus [7]
  Activity: Active
[8]
  LD50: 72.6 mg/kg
MDA-MB-231 [9]
  Activity: Non-Toxic
